# Reference: patent publication US20240158348A1, “HERBICIDAL CYCLIC AMIDES N-SUBSTITUTED WITH A HALOALKYLSULFONYLANILIDE GROUP” (FMC Corporation, priority 2021, published 2024)
# Legend:
# Type in all cases: in vivo
# [1] = system: goosegrass (Eleusine indica); assay: Test C preemergence, goosegrass; settings: 0 is no effect, 100 is complete control
# Procedure, shortened: (§1)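 Injury is given as a visual 0–100 rating, where 100 is complete control, made against untreated plants after 10 or 12 greenhouse days. Galium received a postemergence spray at the one- to two-leaf stage (2–10 cm tall). Corn, ragweed and goosegrass seeds in loam-sand blend received a directed preemergence soil spray; test chemicals were formulated in a surfactant-containing non-phytotoxic solvent.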
# [2] = system: blackgrass (Alopecurus myosuroides); assay: Test C postemergence, blackgrass; settings: 125 g ai/ha Postemergence; 0 is no effect, 100 is complete control
# [3] = system: horseweed (Erigeron canadensis); assay: Test C postemergence, horseweed
# Procedure, shortened: (§2)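 Ratings run from 0, meaning no effect, up to 100, meaning complete control, judged by eye against untreated plants. Treatment was a directed soil spray before emergence or a postemergence spray on 2–10 cm seedlings, with evaluation 10 or 12 days later.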
# [4] = system: blackgrass (Alopecurus myosuroides); assay: Test C postemergence, blackgrass; settings: 31 g ai/ha Postemergence; visual injury, 0 to 100 scale (0 no effect, 100 complete control)
# Procedure, shortened: as §2
# kochia (Bassia scoparia) [5] = assay: Test C postemergence, kochia
# Procedure, shortened: as §2
# [6] = system: galium (catchweed bedstraw, Galium aparine); assay: Test C postemergence, galium
# [7] = system: pigweed, palmer (palmer amaranth, Amaranthus palmeri); assay: Test C preemergence, palmer amaranth; settings: 0 is no effect, 100 is complete control
# Procedure, shortened: as §2
# corn (Zea mays) [8] = assay: Test C postemergence, corn
# [9] = system: wheat (Triticum aestivum); assay: Test C preemergence, wheat; settings: 0 is no effect, 100 is complete control
# kochia (Bassia scoparia) [10] = assay: Test C preemergence, kochia; settings: 0 is no effect, 100 is complete control
# Procedure, shortened: as §2
# [11] = system: barnyardgrass (Echinochloa crusgalli); assay: Test D flooded paddy test, barnyardgrass; set-up: key: 0 = no effect, 100 = complete control; settings: 250 g ai/ha, Flood; applied to paddy water at 2-leaf stage; visual rating after 13 days; scale 0 (no effect) to 100 (complete control)
# Procedure, shortened: (§3)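 Pots holding 2-leaf-stage plants were flooded 3 cm deep and dosed via the water, which stayed at that level. After 13 greenhouse days, injury was scored visually against untreated controls, 0 (none) to 100 (complete control); a dash marks no test result.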
# soybean (Glycine max) [12] = assay: Test C preemergence, soybean; settings: 0 is no effect, 100 is complete control
# Procedure, shortened: as §2
# [13] = system: ryegrass, Italian (Italian ryegrass, Lolium multiflorum); assay: Test C preemergence, Italian ryegrass; settings: 0 is no effect, 100 is complete control
# Procedure, shortened: as §2
# [14] = system: ragweed (common ragweed, Ambrosia artemisiifolia); assay: Test C preemergence, ragweed; settings: 0 is no effect, 100 is complete control
# Procedure, shortened: as §1
# soybean (Glycine max) [15] = assay: Test C postemergence, soybean
# rice (Oryza sativa) = assay: Test D flooded paddy test, rice; set-up: key: 0 = no effect, 100 = complete control; settings: 250 g ai/ha, Flood; applied to paddy water at 2-leaf stage; visual rating after 13 days; scale 0 (no effect) to 100 (complete control)
# Procedure, shortened: as §3
# [16] = system: goosegrass (Eleusine indica); assay: Test C postemergence, goosegrass
# Procedure, shortened: as §2
# corn (Zea mays) [17] = assay: Test C preemergence, corn; settings: 0 is no effect, 100 is complete control
# Procedure, shortened: as §1
# [18] = system: oat, wild (wild oat, Avena fatua); assay: Test C postemergence, wild oat
# [19] = system: ragweed (common ragweed, Ambrosia artemisiifolia); assay: Test C postemergence, ragweed
# Procedure, shortened: as §2
# [20] = system: blackgrass (Alopecurus myosuroides); assay: Test C preemergence, blackgrass; settings: 0 is no effect, 100 is complete control
# Description: Seeds of plant species selected from blackgrass (Alopecurus myosuroides), corn (Zea mays), foxtail, giant (giant foxtail, Setaria faberi), goosegrass (Eleusine indica), kochia (Bassia scoparia), oat, wild (wild oat, Avena fatua), pigweed, palmer (palmer amaranth, Amaranthus palmeri), ragweed (common ragweed, Ambrosia artemisiifolia), ryegrass, Italian (Italian ryegrass, Lolium multiflorum), soybean (Glycine max) and wheat (Triticum aestivum) were planted into a blend of loam soil and sand and treated preemergence with a directed soil spray using test chemicals formulated in a non-phytotoxic solvent mixture which included a surfactant.
# At the same time, plants selected from these crop and weed species and also galium (catchweed bedstraw, Galium aparine) and horseweed (Erigeron canadensis) were planted in pots containing the same blend of loam soil and sand and treated with postemergence applications of test chemicals formulated in the same manner. Plants ranged in height from 2 to 10 cm and were in the one- to two-leaf stage for the postemergence treatment. Treated plants and untreated controls were maintained in a greenhouse for 10 or 12 days, after which time all treated plants were compared to untreated controls and visually evaluated for injury. Plant response ratings, summarized in Table A, are based on a 0 to 100 scale where 0 is no effect and 100 is complete control. A dash (-) response means no test result.
# [21] = system: foxtail, giant (giant foxtail, Setaria faberi); assay: Test C preemergence, giant foxtail; settings: 0 is no effect, 100 is complete control
# Procedure, shortened: as §2
# [22] = system: sedge, umbrella (small-flower umbrella sedge, Cyperus difformis); assay: Test D flooded paddy test, umbrella sedge; set-up: key: 0 = no effect, 100 = complete control; settings: 250 g ai/ha, Flood; applied to paddy water at 2-leaf stage; visual rating after 13 days; scale 0 (no effect) to 100 (complete control)
# Procedure, shortened: as §3
# [23] = system: ducksalad (Heteranthera limosa); assay: Test D flooded paddy test, ducksalad; set-up: key: 0 = no effect, 100 = complete control; settings: 250 g ai/ha, Flood; applied to paddy water at 2-leaf stage; visual rating after 13 days; scale 0 (no effect) to 100 (complete control)
# Procedure, shortened: as §3
# [24] = system: pigweed, palmer (palmer amaranth, Amaranthus palmeri); assay: Test C postemergence, palmer amaranth
# Procedure, shortened: as §2
# [25] = system: wheat (Triticum aestivum); assay: Test C postemergence, wheat
# Procedure, shortened: as §2
# [26] = system: ryegrass, Italian (Italian ryegrass, Lolium multiflorum); assay: Test C postemergence, Italian ryegrass
# Procedure, shortened: as §2
# [27] = system: foxtail, giant (giant foxtail, Setaria faberi); assay: Test C postemergence, giant foxtail
# [28] = system: oat, wild (wild oat, Avena fatua); assay: Test C preemergence, wild oat; settings: 0 is no effect, 100 is complete control
# Procedure, shortened: as §2
# [29] = 31 g ai/ha Postemergence, visual injury, 0 to 100 scale (0 no effect, 100 complete control)
# [30] = 125 g ai/ha Postemergence, 0 is no effect, 100 is complete control
smiles,measurement,setting,value
Cc1cc(C)c(N2CCC(OCC3CC3)C2=O)cc1NS(=O)(=O)C(F)(F)F (stereo not shown) [Compound 22],"Plant response rating (0 to 100 scale), Goosegrass",[1]; 31 g ai/ha Preemergence,100
same,"Plant response rating (0 to 100 scale), Goosegrass",[1]; 125 g ai/ha Preemergence,100
same,"Plant response rating (0 to 100 scale), Blackgrass",[2],90
same,Horseweed plant response rating,[3]; [29],90
same,"Plant response rating (0 to 100 scale), Horseweed",[3]; [30],90
same,Blackgrass plant response rating,[4],20
same,Kochia plant response rating,kochia (Bassia scoparia) [5]; [29],60
same,"Plant response rating (0 to 100 scale), Kochia",kochia (Bassia scoparia) [5]; [30],70
same,Galium plant response rating,[6]; [29],100
same,"Plant response rating (0 to 100 scale), Galium",[6]; [30],100
same,"Plant response rating (0 to 100 scale), Pigweed, Palmer",[7]; 31 g ai/ha Preemergence,100
same,"Plant response rating (0 to 100 scale), Pigweed, Palmer",[7]; 125 g ai/ha Preemergence,100
same,Corn plant response rating,corn (Zea mays) [8]; [29],50
same,"Plant response rating (0 to 100 scale), Corn",corn (Zea mays) [8]; [30],90
same,"Plant response rating (0 to 100 scale), Wheat",[9]; 31 g ai/ha Preemergence,90
same,"Plant response rating (0 to 100 scale), Wheat",[9]; 125 g ai/ha Preemergence,100
same,"Plant response rating (0 to 100 scale), Kochia",kochia (Bassia scoparia) [10]; 31 g ai/ha Preemergence,90
same,"Plant response rating (0 to 100 scale), Kochia",kochia (Bassia scoparia) [10]; 125 g ai/ha Preemergence,100
same,"Plant response rating, Barnyardgrass",[11],90
same,"Plant response rating (0 to 100 scale), Soybean",soybean (Glycine max) [12]; 31 g ai/ha Preemergence,80
same,"Plant response rating (0 to 100 scale), Soybean",soybean (Glycine max) [12]; 125 g ai/ha Preemergence,90
same,"Plant response rating (0 to 100 scale), Ryegrass, Italian",[13]; 31 g ai/ha Preemergence,100
same,"Plant response rating (0 to 100 scale), Ryegrass, Italian",[13]; 125 g ai/ha Preemergence,100
same,"Plant response rating (0 to 100 scale), Ragweed",[14]; 31 g ai/ha Preemergence,50
same,"Plant response rating (0 to 100 scale), Ragweed",[14]; 125 g ai/ha Preemergence,100
same,Soybean plant response rating,soybean (Glycine max) [15]; [29],60
same,"Plant response rating (0 to 100 scale), Soybean",soybean (Glycine max) [15]; [30],70
same,"Plant response rating, Rice",rice (Oryza sativa),55
same,Goosegrass plant response rating,[16]; [29],70
same,"Plant response rating (0 to 100 scale), Goosegrass",[16]; [30],90
same,"Plant response rating (0 to 100 scale), Corn",corn (Zea mays) [17]; 31 g ai/ha Preemergence,90
same,"Plant response rating (0 to 100 scale), Corn",corn (Zea mays) [17]; 125 g ai/ha Preemergence,90
same,"Oat, Wild plant response rating",[18]; [29],20
same,"Plant response rating (0 to 100 scale), Oat, Wild",[18]; [30],40
same,Ragweed plant response rating,[19]; [29],60
same,"Plant response rating (0 to 100 scale), Ragweed",[19]; [30],80
same,"Plant response rating (0 to 100 scale), Blackgrass",[20]; 31 g ai/ha Preemergence,50
same,"Plant response rating (0 to 100 scale), Blackgrass",[20]; 125 g ai/ha Preemergence,90
same,"Plant response rating (0 to 100 scale), Foxtail, Giant",[21]; 31 g ai/ha Preemergence,100
same,"Plant response rating (0 to 100 scale), Foxtail, Giant",[21]; 125 g ai/ha Preemergence,100
same,"Plant response rating, Sedge, Umbrella",[22],95
same,"Plant response rating, Ducksalad",[23],90
same,"Pigweed, Palmer plant response rating",[24]; [29],50
same,"Plant response rating (0 to 100 scale), Pigweed, Palmer",[24]; [30],80
same,Wheat plant response rating,[25]; [29],50
same,"Plant response rating (0 to 100 scale), Wheat",[25]; [30],60
same,"Ryegrass, Italian plant response rating",[26]; [29],70
same,"Plant response rating (0 to 100 scale), Ryegrass, Italian",[26]; [30],80
same,"Foxtail, Giant plant response rating",[27]; [29],20
same,"Plant response rating (0 to 100 scale), Foxtail, Giant",[27]; [30],60
same,"Plant response rating (0 to 100 scale), Oat, Wild",[28]; 31 g ai/ha Preemergence,90
same,"Plant response rating (0 to 100 scale), Oat, Wild",[28]; 125 g ai/ha Preemergence,100
